One may read the melting point as the temperature, or range, at which the solid turns liquid. Regarding `O=C1c2ccccc2-c2c1c1c(c(=O)n2CCCCNS(=O)(=O)c2ccccc2)C=CCC1`, the melting point lay in the range of 184 to 186 °C.

With `O=C(c1ccccc1)c1cc([N+](=O)[O-])ccc1OCCO`, the melting point was in the range of 124 to 126 °C.

As for `CCCCCCCCCCCc1nnc2n1-c1sc(CC)cc1C(c1ccc(O)cc1)OC2` (centres undefined), the melting point lay in the range of 96 to 98 °C.

`COC(=O)c1ccc(C(Cc2cc(C)ccc2N2CCCCC2)C(N)=O)cc1` (centres undefined): the melting point lay within 124 to 126 °C.

With `CC(C)CCSCC[C@H](O)[C@@H](N)CC(C)C`, the melting point is 64 to 65 °C.

`CN(C(=O)c1ccc2nonc2c1)C1CCOC(O)C1` (centres undefined): the melting point is < 90 °C.

Compound `N#Cc1ccc(Oc2cc(F)cc(F)c2)c([N+](=O)[O-])c1` showed a melting point of 132 to 136 °C.

`O=C(OC(c1ccccc1)c1ccccc1)C(NC=S)c1ccccc1` (centres undefined) displayed a melting point of 129 to 130 °C.

On to `FC(F)(F)c1csc(Nc2cc3ccccc3cn2)n1`, for which the melting point lay within 200 to 203 °C.

`CCC(=O)Nc1c(C#N)cnn1-c1c(Cl)cc(Cl)c(Cl)c1Cl` returned a melting point of 203 to 204 °C.

In turn, `Sc1ncc(-c2ccc(Cl)cc2)[nH]1` registered a melting point of 308 °C.

`c1ccc2c(c1)[nH]c1c2ccc2cc[nH]c21`: the melting point was 295 °C.

Compound `CCOCc1nc2c(N)nc3cc(-c4ccsc4)ccc3c2n1CC(C)(C)O` displayed a melting point of 204 to 205 °C.

`COc1cc2c(cc1OC)C1=NCCN1C(/C=C(\O)c1cccnc1)=N2` displayed a melting point of 275 °C.

`COC(=O)c1ccc2scc(Cl)c2n1` had a melting point of 126 to 127 °C.

The compound `CCCn1cc(Cc2ccc(C(=O)O)cc2OC)c2cc(C=CCC(=O)N(C)C)ccc21` returned a melting point of 124 to 126 °C.

In turn, `Cc1c(CN2CCC(c3c(Cl)cccc3Cl)CC2)[nH]c2ccccc12` yielded a melting point of 139 to 141 °C.

Regarding `Cn1c(Cl)c(C=C(C#N)S(C)(=O)=O)c2ccccc21`, the melting point was found to be 180 °C.

`Fc1ccccc1-c1ccc2cccnc2n1` gave a melting point of 111 to 114 °C.

`N#Cc1c(-c2cccc(N)c2)cc(-c2ccccc2O)nc1NC(=O)c1ccccc1` had a melting point of 259 to 261 °C.

`Cc1ncsc1CCOc1ccc(NC(=O)c2cc(F)cc(N3CCCCC3)c2)c2ccccc12`: the melting point was 221 to 222 °C.

`OC/C=C/c1ccc(O)c(OCc2ccccc2)c1`: the melting point lay within 99 to 101 °C.

For `CCN(CC)CCCCC(=O)c1cc(Cl)c(N)cc1OCc1cc(OC)cc(OC)c1`, the melting point lay within 105 to 107 °C.

In the case of `COc1ccc(-n2ccc3ccccc32)cc1F`, the melting point is 65 to 67 °C.

Regarding `COCC(=O)Nc1cc2c(cc1C#N)C(Nc1ccc(C(=O)OC(C)(C)C)cc1)CC2` (centres undefined), the melting point was in the range of 163 to 164 °C.

As for `O=C1OC2(CCC2)C(O)=C1c1ccccc1`, the melting point is 188 to 189 °C.

For the compound `CCN1CCCC1CNC(=O)c1cc(NS(N)(=O)=O)c(C)cc1OC` (centres undefined), the melting point lay within 140 to 141 °C.

Compound `CSC1=CC2=CN(O)NN2C(Cl)=N1` yielded a melting point of 256 to 257 °C.

`N#CNC(=S)Nc1ccc(C#N)cc1`: the melting point is > 250 °C.

Compound `COc1cc([N+](=O)[O-])ccc1-c1cnc(C)s1` registered a melting point of 114 to 117 °C.

On to `O=C1CC(c2ccc(Cl)cc2)CC(=O)N1c1ccncc1`, for which the melting point lay in the range of 204 to 206 °C.

As for `CC(=O)OCC(=O)Nc1nc2c(Oc3cc(-c4ccc(C(F)(F)F)cc4)ncn3)cccc2s1`, the melting point was 119 to 138 °C.

`COc1ccc(CNC(=O)c2ccc3n2Cc2ccccc2N(C(=O)c2ccc(-c4ccccc4C)c(OC)c2)C3)cc1` came in with a melting point of 178 to 179 °C.

As to `COC(=O)c1ccc2cc(-c3ccccc3)[nH]c2c1`, the melting point is 208 to 210 °C.

In turn, `CCCCc1nc2cccnc2n1-c1ccc(OCc2ccc(OC)c(OC3CC4CCC3C4)c2)cc1` (centres undefined) had a melting point of 130 to 132 °C.

In turn, `CCCCC/C(=C\C=C\C(=S)NCCCCc1cccnc1)c1ccc(OC)cc1` showed a melting point of 121 to 122 °C.

As to `O=C(c1ccc([N+](=O)[O-])cc1Cl)N1CCCCc2sccc21`, the melting point is 131 to 134 °C.

`CCOC(=O)c1ncn2c1CN=C(c1ccccc1Cl)c1cc(Cl)ccc1-2` yielded a melting point of 215 to 220 °C.

The compound `O=C(OI(OC(=O)C(F)(F)F)C(F)(F)C(F)(F)C(F)(F)C(F)(F)C(F)(F)C(F)(F)C(F)(F)C(F)(F)F)C(F)(F)F` yielded a melting point of 70 to 74 °C.

The compound `c1ccc2c(CN3CCN(c4ccc5c(c4)OCO5)CC3)n[nH]c2c1` showed a melting point of 149 to 150 °C.

As for `Cc1ccccc1C1CC(=O)c2c(C)n[nH]c2C1` (centres undefined), the melting point was 205 to 207 °C.

`COC(=O)c1ccc(-c2cc[nH]n2)cc1Cl` gave a melting point of 130 to 131 °C.

Compound `O=C(CC1(Sc2ccc(Oc3ccc(Cl)cc3)cc2)CCOCC1)NO` yielded a melting point of 50 to 55 °C.

Regarding `CCOC(=O)/C(=N\OCCN)c1csc(NC(c2ccccc2)(c2ccccc2)c2ccccc2)n1`, the melting point fell in the range of 126 to 144 °C.

Turning to `COc1ccc(Cn2ncc3c4c(cnc32)CN(C(=O)Nc2ccccc2)CC4)cc1`, the melting point is > 65 °C.

The compound `CCOC(=O)N1CCn2c(nc(-c3ccncn3)cc2=O)C(NC(=O)c2ccccn2)C1` (racemic) came in with a melting point of 250 to 252 °C.

`Clc1cnc(Cl)c2cc(Br)ccc12` gave a melting point of 134 to 135 °C.

Compound `CCN1C(=O)C(C)(C)C(=O)N(C)c2cc(CN(CCn3ccc4oc(C)cc4c3=O)Cc3nc4ccccc4n3C)ccc21` came in with a melting point of 127 to 133 °C.

As to `Cc1oc(-c2ccccc2)nc1COc1cccc(COc2cccc(CC(=O)O)c2)n1`, the melting point lay within 97 to 98 °C.

`COc1ccc(C)c(O)c1` registered a melting point of 34 to 35 °C.

The compound `CC(C)(C)c1cc(C(=O)OCCN(CCO)C(=O)c2cc(C(C)(C)C)c(O)c(C(C)(C)C)c2)cc(C(C)(C)C)c1O` came in with a melting point of 174 to 178 °C.

Compound `CCC1(CSc2ccccc2C(=O)c2ccccc2)COC(=O)N1` (racemic) yielded a melting point of 103 to 104 °C.

With `O=C(O)c1ccc(OCc2ccc3ccccc3n2)cc1`, the melting point is > 300 °C.

Turning to `COc1cc(N2CCN(C(=O)Cn3nc(C#N)c4cccnc43)CC2)ccc1Cl`, the melting point is 183 to 185 °C.

Take `CC(C)SC1NC(=O)C1NC(=O)COc1ccccc1` (centres undefined): the melting point is 128 to 130 °C.

With `Cc1cc(Cl)cc(Cl)c1OC(=O)c1ccc(CCl)cc1`, the melting point was in the range of 74 to 75 °C.

Turning to `CC(Cc1c[nH]c2ccccc12)(NC(=O)OC1C2CC3CC(C2)CC1C3)C(=O)NC1CCCCC1C(=O)O` (centres undefined), the melting point was in the range of 230 to 234 °C.

Take `CC(C)(C)OC(=O)Nc1cccc(C(=O)NCC(=O)OCc2ccccc2)c1`: the melting point was in the range of 171 to 173 °C.

Turning to `COc1cc2c(cc1OC)C1(CNC(=O)C1)CC2=O` (centres undefined), the melting point was 193 to 195 °C.

`CC(=O)SCC(Cc1ccccc1)C(=O)Nc1ccc(Cl)c(C(=O)O)c1` (centres undefined) displayed a melting point of 163 to 165 °C.

`S=c1[nH]c2c(n1-c1ccccn1)CCCC2` had a melting point of 203 to 204 °C.

Consider `COc1ccccc1-n1nc(S(=O)(=O)c2ccc(Cl)cc2)c(C)c(C#N)c1=O`, for which the melting point lay within 175 to 178 °C.

`O=[N+]([O-])c1ccc(S(=O)(=O)C2COCC2Br)cc1` (centres undefined) returned a melting point of 155 to 157 °C.

`Cc1sc(N2CCOCC2)nc1CCl` gave a melting point of 110 to 111 °C.

Source of the values: a melting point compilation (Tetko et al.; mined from patent text by program, amines drawn as free bases though some values may be those of a salt).
